Reference: US20110003015A1, “STABILIZED COMPOSITION COMPRISING AT LEAST ONE ADRENERGIC COMPOUND” (ALK AG, priority 2009, published 2011)
Where two headings read alike, the source gives them in different places.

Experiments:
[1] = Procedure: The formulation solutions were prepared at a level of 1.0 mg/ml adrenaline (in the form of the tartrate), pH 3.4 containing, 0.6% sodium chloride, with various molar ratios (0.25-0.59) of sodium metabisulfite added. The metabisulfite/adrenaline molar ratios tested were 0.25, 0.34, 0.42, 0.5 and 0.59, which correspond to sulfite/adrenaline ratios of 0.5, 0.68, 0.84, 1.0 and 1.18, respectively. For the ease of reference to the general description and claims of this specification, the said values correspond to a molar ratio of adrenaline to sulfite of 2.0, 1.47, 1.19, 1.0 and 0.85, respectively.
Each sample solution was split into two lots. For each sample solution, one lot was placed at the accelerated test temperature of 60° C., protected from light and the other lot placed in a photo-stability cabinet at 25° C. which provided 13400 lux visible light, 1.50 W.h/m^2 UV. Samples were pulled from both conditions at 0, 7, 14 and 28 days At each pull point, the appearance of the test solution was assessed, the pH measured and the adrenaline content measured together with impurities.

Remark: listed apart in the source
[2] = at the metabisulfite levels contemplated; 60° C.
Procedure: A 1.1 mg/ml solution of adrenaline (6.004×10^−3 M), in the form of the tartrate, pH 3.4 and containing 0.6% sodium chloride was used. A range of metabisulfite antioxidant concentrations, with and without admixture of 0.25% di-sodium edetate as chelating agent were tested. The metabisulfite/adrenaline molar ratios tested were 0.1, 0.2, 0.5, 1.0 and 1.5, which correspond to sulfite/adrenaline ratios of 0.2, 0.4, 1.0, 2.0 and 3.0, respectively. For the ease of reference to the general description and claims of this specification, the said values correspond to a molar ratio of adrenaline to sulfite of 5.0, 2.5, 1.0, 0.5 and 0.33, respectively.
The accelerated test temperature was 60° C., protected from light, and samples were pulled at 0, 7, 14, 21 and 28 days. At each pull point, the appearance of the test solution was assessed, the pH measured and the solution assayed for adrenaline content. The appearance of degradation products was noted as area %.
[adr]^+ relates to samples containing 0.025% di-sodium edetate, whereas [adr] relates to samples containing no chelating agent.

| molar ratio of metabisulfite to adrenaline in which stability of adrenaline is improved [1] | optimum sulfite:adrenaline ratio ([1]; Examples 2 and 3 summarised, 60° C., FIGS. 8 and 9) | first choice of metabisulfite content with respect to adrenaline ([1]; considering both thermal and photo stresses) | best metabisulfite:adrenaline ratio on the basis of total impurities ([1]; heat stress 60° C.) | best metabisulfite:adrenaline ratio on the basis of total impurities ([1]; photo-stress, 25° C., 13400 lux visible light, 1.50 W.h/m^2 UV) | pH for maximum stability of epinephrine in solution | Compound | advantage of using a chelating agent for adrenaline solution stability [2] |
| --- | --- | --- | --- | --- | --- | --- | --- |
| 0.25-0.59 | about 1.0 | half molar | 0.42 | 0.5 | about 3.4 | CNC[C@H](O)c1ccc(O)c(O)c1 [adrenaline, (R)-4-(1-hydroxy-2-(methylamino)ethyl)benzene-1,2-diol] |  |
|  |  |  |  |  |  | O=C([O-])CN(CCN(CC(=O)[O-])CC(=O)O)CC(=O)O.[Na+].[Na+] [di-sodium edetate] | no advantage |
